In patent publication US20080255213A1, “THIAZOLIDINONE AMIDES, THIAZOLIDINE CARBOXYLIC ACID AMIDES, AND SERINE AMIDES, INCLUDING POLYAMINE CONJUGATES THEREOF, AS SELECTIVE ANTI-CANCER AGENTS” (University of Tennessee Research Foundation, priority 2007, published 2008):
Where two headings read alike, the source gives them in different places.

Legend:
melanoma cells = experiment: SRB cytotoxicity assay, statements not tied to one cell line; format: cell-based, human; settings: for potency/activity in words: melanoma cells and fibroblast cells; for IC50: Homo sapiens
Protocol: (§1) Cytotoxicity of these newly synthesized compounds was examined in two human melanoma cell lines (SK-MEL-188 and WM-164) and in a fibroblast cell line. Activity on fibroblast cells was used as a control to determine the selectivity of these compounds against melanoma. Standard sulforhodamine B (SRB) assay was used. Cells were exposed to a wide range of concentrations for 48 h in round-bottom 96-well plates. Cells were fixed with 10% trichloroacetic acid and washed five times with water. After cells were air-dried overnight and stained with SRB solution, total proteins were measured at 560 nm with a plate reader. IC50 (i.e., concentration which inhibited cell growth by 50% of DMSO-treated controls) values were obtained by nonlinear regression analysis with GraphPad Prism (GraphPad Software, San Diego, Calif.).
(§2) The ability of thiazolidine derivatives to inhibit the growth of two melanoma cancer cell lines and fibroblast cells is summarized in Table 1. […] At this early stage, all compounds were used as a diastereomeric mixture if they contain chiral centers in order to select the most promising compounds for further development.

[1] = test system: SK-MEL-188 melanoma cell line; experiment: Sulforhodamine B (SRB) cytotoxicity assay, SK-MEL-188; format: cell-based; settings: Homo sapiens, 48 h exposure, diastereomeric mixtures, value ± standard error, read-out: IC50 ± SEM SK-MEL-188 (converted)
Protocol: as §1, §2

[2] = test system: WM-164 melanoma cell line; experiment: Sulforhodamine B (SRB) cytotoxicity assay, WM-164; format: cell-based; settings: Homo sapiens, WM164, 48 h exposure, diastereomeric mixtures, value ± standard error, read-out: IC50 ± SEM WM-164 (converted)
Protocol: as §1, §2

fibroblast cell line = experiment: Sulforhodamine B (SRB) cytotoxicity assay, fibroblast control; format: cell-based; settings: 48 h exposure, control for selectivity, value ± standard error, read-out: IC50 ± SEM Fibroblast (converted)
Protocol: as §1, §2

[3] = summary over the cell lines, read-out: IC50 in the in vitro assay (cell line not given)

| SMILES | potency/activity in words (melanoma cells) | IC50 [1] | IC50 [2] | IC50 (fibroblast cell line) | IC50 (melanoma cells; [3]) | selectivity in words (melanoma cells; melanoma versus fibroblast cells) | IC50 (melanoma cells; melanoma cells, lowest value stated in text, read-out: IC50 for melanoma cells (as low as)) |
| --- | --- | --- | --- | --- | --- | --- | --- |
| CCCCCCCCCCNC(=O)[C@@H]1CSC(c2ccc3c(c2)OCO3)N1 (stereo partly drawn) [Compound 310, (4R)-2-(benzo[d][1,3]dioxol-5-yl)-N-decylthiazolidine-4-carboxamide] | low potency | 6600 nM | 4500 nM | 8200 nM |  |  |  |
| CCCCCCCCCCCCCCCCCNC(=O)[C@@H]1CSC(c2ccc(NC(C)=O)cc2)N1 (stereo partly drawn) [Compound 318, (4R)-2-(4-acetamidophenyl)-N-heptadecylthiazolidine-4-carboxamide] |  | 8500 nM | 2400 nM | 35800 nM |  |  |  |
| CCCCCCCCCCCCNC(=O)[C@@H]1CSC(c2ccc3c(c2)OCO3)N1 (stereo partly drawn) [Compound 311, (4R)-2-(benzo[d][1,3]dioxol-5-yl)-N-dodecylthiazolidine-4-carboxamide] |  | 3500 nM | 2500 nM | 5200 nM |  |  |  |
| CCCCCCCCCCCCCCNC(=O)[C@@H]1CSC(c2ccccc2)=N1 [Compound 328, (R)-4,5-dihydro-2-phenyl-N-tetradecylthiazole-4-carboxamide] |  | 42100 ± 5000 nM | > 50000 nM | > 50000 nM | > 20000 nM |  |  |
| CCCCCCCCCCCCNC(=O)[C@@H]1CSC(c2ccc(NC(C)=O)cc2)N1 (stereo partly drawn) [Compound 314, (4R)-2-(4-acetamidophenyl)-N-dodecylthiazolidine-4-carboxamide] |  | 2400 nM | 1200 nM | 3500 nM |  |  |  |
| CCCCCCCCCCCCCCNC(=O)[C@@H]1CSC(c2ccc(OC)c(OC)c2)=N1 [Compound 329, (R)-4,5-dihydro-2-(3,4-dimethoxyphenyl)-N-tetradecylthiazole-4-carboxamide] |  | 19100 nM | 42900 nM | > 50000 nM | > 20000 nM |  |  |
| CCCCCCCCCCCCCCNC(=O)[C@@H]1CSC(c2ccc3c(c2)OCO3)N1 (stereo partly drawn) [Compound 312, (4R)-2-(benzo[d][1,3]dioxol-5-yl)-N-tetradecylthiazolidine-4-carboxamide] |  | 1600 nM | 1000 nM | 4200 nM |  |  |  |
| CCCCCCCCCCCCCCCCNC(=O)[C@@H]1CSC(c2ccc(OC)c(OC)c2)N1 (stereo partly drawn) [Compound 309, (4R)—N-hexadecyl-2-(3,4-dimethoxyphenyl)thiazolidine-4-carboxamide] |  | 1500 nM | 500 nM | 2100 nM |  |  |  |
| CCCCCCCCCCCCCCCCNC(=O)[C@@H]1CSC(c2ccccc2)N1 (stereo partly drawn) [Compound 322, (4R)—N-hexadecyl-2-phenylthiazolidine-4-carboxamide] |  | 1900 nM | 700 nM | 2200 nM |  | loss of selectivity |  |
| CCCCCCCCCCNC(=O)[C@@H]1CSC(c2ccc(OC)c(OC)c2)N1 (stereo partly drawn) [Compound 306, (4R)—N-decyl-2-(3,4-dimethoxyphenyl)thiazolidine-4-carboxamide] | low potency | 11900 nM | 6100 nM | 6300 nM |  |  |  |
| CCCCCCCCCCNC(=O)[C@@H]1CSC(c2cc(OC)c(OC)c(OC)c2)N1 (stereo partly drawn) [Compound 302, (4R)—N-decyl-2-(3,4,5-trimethoxyphenyl)thiazolidine-4-carboxamide] | low potency | 14500 nM | 2100 nM | 6700 nM |  |  |  |
| CCCCCCCCCCCCCCCCNC(=O)[C@@H]1CSC(c2ccc(NC(C)=O)cc2)N1 (stereo partly drawn) [Compound 317, (4R)-2-(4-acetamidophenyl)-N-hexadecylthiazolidine-4-carboxamide] |  | 2100 nM | 600 nM | 19100 nM |  |  | 600 nM |
| CCCCCCCCCCCCCCCCNC(=O)[C@@H]1CSC(c2ccc3c(c2)OCO3)N1 (stereo partly drawn) [Compound 313, (4R)-2-(benzo[d][1,3]dioxol-5-yl)-N-hexadecylthiazolidine-4-carboxamide] |  | 1600 nM | 1800 nM | 5700 nM |  |  |  |
| CCCCCCCCCCCCCCNC(=O)[C@H]1CSC(c2cc(OC)c(OC)c(OC)c2)N1 (stereo partly drawn) [Compound 324, (4S)-2-(3,4,5-trimethoxyphenyl)-N-tetradecylthiazolidine-4-carboxamide] |  | 2600 ± 200 nM | 1100 ± 100 nM | 4100 ± 700 nM |  |  |  |
| CCCCCCCCCCCCCCNC(=O)[C@@H]1CSC(c2cc(OC)c(OC)c(OC)c2)N1 (stereo partly drawn) [Compound 304, (4R)-2-(3,4,5-trimethoxyphenyl)-N-tetradecylthiazolidine-4-carboxamide] |  | 2000 nM | 1600 nM | 2600 nM |  |  |  |
| CCCCCCCCCCCCCCCCNC(=O)[C@@H]1CSC(c2cc(OC)c(OC)c(OC)c2)N1 (stereo partly drawn) [Compound 305, (4R)—N-hexadecyl-2-(3,4,5-trimethoxyphenyl)thiazolidine-4-carboxamide] |  | 1800 nM | 700 nM | 2400 nM |  |  |  |
| CCCCCCCCCCCCCCCNC(=O)[C@@H]1CSC(c2ccc(NC(C)=O)cc2)N1 (stereo partly drawn) [Compound 316, (4R)-2-(4-acetamidophenyl)-N-pentadecylthiazolidine-4-carboxamide] |  | 1600 nM | 1000 nM | 14300 nM |  |  |  |
| CCCCCCCCCCCCCCNC(=O)[C@@H]1CSC(c2ccc(OC)c(OC)c2)N1 (stereo partly drawn) [Compound 308, (4R)-2-(3,4-dimethoxyphenyl)-N-tetradecylthiazolidine-4-carboxamide] |  | 1500 nM | 800 nM | 2800 nM |  |  |  |
| CCCCCCCCCCCCCCCCNC(=O)[C@H]1CSC(c2ccc(NC(C)=O)cc2)N1 (stereo partly drawn) [Compound 325, (4S)-2-(4-acetamidophenyl)-N-hexadecylthiazolidine-4-carboxamide] |  | 3200 nM | 1400 nM | 22600 nM |  |  |  |
| CCCCCCCCCCCCNC(=O)[C@@H]1CSC(c2cc(OC)c(OC)c(OC)c2)N1 (stereo partly drawn) [Compound 303, (4R)—N-dodecyl-2-(3,4,5-trimethoxyphenyl)thiazolidine-4-carboxamide] |  | 2100 nM | 2400 nM | 2400 nM |  |  |  |
| CN(C)/N=N/c1[nH]cnc1C(N)=O [DTIC, dacarbazine, reference compound] |  | > 100000 nM | > 100000 nM |  | > 100000 nM |  |  |
| CCCCCCCCNC(=O)[C@@H]1CSC(c2cc(OC)c(OC)c(OC)c2)N1 (stereo partly drawn) [Compound 301, (4R)-2-(3,4,5-trimethoxyphenyl)-N-octylthiazolidine-4-carboxamide] |  | 17100 ± 600 nM | 19600 ± 900 nM | 20800 ± 10400 nM |  |  |  |
| CCCCCCCCCCCCNC(=O)[C@@H]1CSC(c2ccc(N)cc2)N1 (stereo partly drawn) [Compound 326, (4R)-2-(4-aminophenyl)-N-dodecylthiazolidine-4-carboxamide] |  | 2200 nM | 1400 nM | 4100 nM |  |  |  |
| CCCCCCCCCCCCNC(=O)[C@@H]1CSC(c2ccc(OC)c(OC)c2)N1 (stereo partly drawn) [Compound 307, (4R)—N-dodecyl-2-(3,4-dimethoxyphenyl)thiazolidine-4-carboxamide] |  | 2900 nM | 1600 nM | 4500 nM |  |  |  |
| CCCCCCCCCCCCCCNC(=O)[C@@H]1CSC(c2ccc(NC(C)=O)cc2)N1 (stereo partly drawn) [Compound 315, (4R)-2-(4-acetamidophenyl)-N-tetradecylthiazolidine-4-carboxamide] |  | 2300 nM | 600 nM | 3600 nM |  |  |  |
| CCCCCCCCCCCCCCCCNC(=O)[C@@H]1CSC(c2ccc(N)cc2)N1 (stereo partly drawn) [Compound 327, (4R)-2-(4-aminophenyl)-N-hexadecylthiazolidine-4-carboxamide] |  | 2300 nM | 1400 nM | 7400 nM |  |  |  |
